US8552064B2, “Suramin and derivatives thereof as topical microbicide and contraceptive” (Eastern Virginia Medical School, priority 2005, dated 2013)
Values after ≈ are worked out from the molar mass of the structure shown.

Tests used:
sperm [1] = experiment: Sperm progressive motility dose-response and time studies, CASA; type: cell-based, human
sperm [2] = experiment: Sperm viability, membrane integrity (HOST); type: cell-based
Experimental: Viability of sperm was assessed by a sperm membrane integrity evaluation as described in Jeyendran R. S. et al., J. Reprod. Fertil., 70: 219-28 (1984). Aliquots of sperm samples were incubated with suramin or N-9 test compounds. The reaction was terminated by the addition of 1.5 mL Ham's F10. Sperm were centrifuged and the pellet was resuspended in 200 μL of medium. Sperm viability was assessed by placing 100 μL of the sperm suspension in 900 μL of hypo-osmotic swelling test (HOST) medium for 30 min. Coiled sperm tails are a reflection of intact sperm membrane permeability and indicate viable sperm. A minimum of 200 cells were microscopically assessed from each sample.

rabbit sperm = experiment: Rabbit contraceptive efficacy, ex-vivo sperm mixing; type: in vivo; settings: for inhibition of pregnancy rates (PR): 1 mM (1.4 mg/mL), Table 6: 0.1% (~1 mM); for Implantation Sites (Mean ± SD): 11 days post-insemination
Experimental: Semen was collected from New Zealand White (NZW) male rabbits with the aid of an artifical vagina, pooled and adjusted with a modified Tyrode's albumin lactate pyruvate (TALP) medium to 50 million motile sperm per milliliter. Ovulation was induced in females by injection of 200 IU of human chorionic gonadotropin (hCG) intravenously. Under the ex-vivo (in-vitro) mixing protocol, sperm were incubated with indicated suramin test compounds in a tube for 15 minutes at 37° C. prior to insemination (0.5 mL) as described in Anderson R. A., et al. J. Androl., 21: 862-875 (2000). […] Sperm-compound contact, in this case, took place in vivo, inside the vagina. Insemination and administration of the compound was performed with a flexible, 12 cm long polyurethane catheter. The main endpoints for both protocols were the number of implantation sites counted 11 days after insemination and pregnancy rate. Such sites were counted by visual inspection of the tubes.

HIV-1 IIIB = experiment: Virus binding inhibition assay VBIA-IIIB in MT-2 cells; type: cell-based
Experimental: VBIAIIIB: MT-2 cells, compounds and virus (HIV-1 IIIB) were mixed together in 96-well plates and incubated for 2 h at 37° C. At the end of this incubation period, the 96-well plates were centrifuged for 10 minutes and approximately 175 μL of medium was removed using a multichannel pipettor and replaced with 175 μL of fresh media. […] Modulation of virus induced cytopathic effects was measured by determining percent reduction in optical density (O.D.) using an XTT (2,3-bis(2-methoxy-4-nitro-5-sulfophenyl)-5-[phenylamino)carbonyl]-2H-tetrazolium hydroxide) dye reduction assay. Virus-induced cytopathic effects and mechanical artifacts due to media removal were verified by microscopic observations (Anderson R. A., et al., J. Androl., 21: 862-875 (2000)). The results of this assay are provided herein.

[3] = system: HIV-1 transmission from H9-SK1 cells to ME-180 cervical epithelial cells; experiment: ME-180-based topical microbicide assay (CD4-independent epithelial cell transmission)
Experimental: ME-180 cervical epithelial cells were plated in the interior wells of a 96-well flat bottom microtiter plate at a density of 5×10^3 cells per well and incubated overnight. Chronically infected H9 cells (H9-SK1) were treated with 200 μg/ml mitomycin C (Sigma) in complete medium for one hour, washed extensively and resuspended at 4×10^5 per ml. […] Antiviral compounds and chronically infected cells (2×10^4 cells) were added to each well containing ME-180 cells and incubated for 6 hours. Following co-cultivation, the monolayer was washed extensively and fresh medium was added. Medium was removed and fresh medium was added at 24 and 48 hours post-infection to remove dead lymphocytes. On day 6 post-infection, supernatant samples were removed and analyzed for virus content by p24 ELISA (Phillips D M et al., 1995, J Virol Methods, March, 52 (1-2): 1-13).

CaSki cells = experiment: Cytotoxicity in the anti-herpes study; type: cell-based, human; settings: highest concentration tested (1000 μg/mL)
[4] = system: human vaginal cell line (VK2); type: cell-based
Experimental: Vaginal cytotoxicity was determined by 3-[4,5-dimethylthiazol-2-yl]-2,5-diphenyl tetrazolium bromide (MTT) assay and cytokine assays, both as described in Fichorova R. N. et al., J. Infect. Dis. 184(4): 418-28, 2001). The MTT assay assesses the cytotoxicity of various compounds against cell lines by plating the desired cells prior to exposure to the compounds. On the day of treatment, culture medium was carefully aspirated from the wells and replaced with fresh medium containing the test compound at various concentrations. The cells were incubated with the various compounds for 6 hours, washed with fresh medium and MTT was then added and the plates were incubated at 37° C. for a period of time sufficient to allow MTT to form formazan crystals by reacting with metabolically active cells. The formazan crystals were solubilized overnight at 37° C. in a solution containing 10% SDS in 0.01 M HCl. The absorbance of each well was measured in a microplate reader (Dynex) at 540 nm and a reference wavelength of 690 nm.

[5] = system: interleukin release by vaginal cells; type: cell-based, human
Experimental: Interleukin levels were assessed in the supernatant collected after 6 hours of compound-cells incubation using commercial ELISA kits (R&D Diagnostics, Minneapolis, Minn.) according to manufacturer's instructions (also see Fichorova R. N. et al., J. Infect. Dis. 184(4): 418-28, 2001).

Lactobacillus gasseri = experiment: Lactobacilli growth; type: cell-based

Cc1ccc(C(=O)Nc2ccc(S(=O)(=O)O)c3cc(S(=O)(=O)O)cc(S(=O)(=O)O)c23)cc1NC(=O)c1cccc(NC(=O)Nc2cccc(C(=O)Nc3cc(C(=O)Nc4ccc(S(=O)(=O)O)c5cc(S(=O)(=O)O)cc(S(=O)(=O)O)c45)ccc3C)c2)c1 [Suramin, 8,8′-(carbonylbis(imino-3,1-phenylenecarbonylimino(4-methyl-3,1-phenylene)carbonylimino))bis-1,3,5-naphthalene trisulfonic acid]
sperm motion parameters by CASA (sperm [1]; 1 mM): no significant changes in sperm motion parameters
sperm motion characteristics vs control (sperm [1]; 7.5 mg/mL): did not appear to be significantly different
sperm progressive motility and membrane integrity vs solvent control (sperm [1]; 1-10,000 μg/mL or 5-0.07 mM): no alteration of sperm progressive movement and viability
sperm motility, time-dependent study (sperm [1]; suboptimal doses, prolonged incubation (e.g., 30 min.)): no alteration of sperm motility
sperm viability vs solvent-treated controls (sperm [2]; 10-0.001 mg/mL): No significant differences
Potency, Viability (HOST) (sperm [2]; time- and dose-dependent exp.): None
effect on PR (rabbit sperm; 0.1 mg/mL): did not significantly reduce PR
inhibition of pregnancy rates (PR) (rabbit sperm): 86% inhibition
inhibition of pregnancy rates (PR) (rabbit sperm; listed as suramin sodium): 86%
inhibition, rabbit pretreated sperm (rabbit sperm; 5% in KY Jelly (Table 6)): 100% inhibition
prevention of pregnancies (rabbit sperm; five percent (5%) concentration): completely prevented pregnancies
Potency, Contraception, rabbit pretreated sperm (In-vitro mixing) (rabbit sperm; rabbit, in vivo): Moderate
Pregnancy Rate (%) (rabbit sperm; suramin 0.1 mg/ml): 83%
Implantation Sites (Mean ± SD) (rabbit sperm; suramin 0.1 mg/ml): 4.4 ± 0.8
Implantation Sites (Mean ± SD) (rabbit sperm; suramin 0.1 mg/ml, listed as suramin sodium): 4.4±0.8
Number of Pregnant Females/Total (rabbit sperm; suramin 0.1 mg/ml, sperm mixed 15 min before insemination): 5/6
Pregnancy Rate (%) (rabbit sperm; suramin 1.4 mg/ml): 14%
Number of Pregnant Females/Total (rabbit sperm; suramin 1.4 mg/ml (1 mM)): 1/7
Implantation Sites (Mean ± SD) (rabbit sperm; suramin 1.4 mg/ml): 1
Pregnancy Rate (%) (rabbit sperm; suramin 50 mg/ml): 0%
Number of Pregnant Females/Total (rabbit sperm; suramin 50 mg/ml (5%)): 0/7
Potency, HIV-1 VBIA-IIIb (HIV-1 IIIB): High
IC50 (HIV-1 IIIB; Human immunodeficiency virus 1, IIIB, MT2, 72 hours incubation, read-out: IC50 against IIIB, viral entry assay): 7.3 µg/mL (≈ 5.63 µM)
Potency, HIV-1 ME-180 [3]: High
IC50 ([3]; Human immunodeficiency virus 1, ME-180, CD4-independent epithelial cell transmission): 24.5 µg/mL (≈ 18.9 µM)
effect of mucin on activity in ME-180 assay ([3]; addition of mucin): did not significantly reduce suramin's activity
cytotoxicity (CaSki cells): not being significantly cytotoxic
cytotoxicity in comparative study [4]: the least cytotoxic of them all
N-9-induced release of IL-1 and IL-8 by vaginal cells [5]: decreased N-9-induced release of IL-1 and IL-8
Potency, Proinflammatory Cytokines (ELISA) [5]: None
stimulation of proinflammatory cytokines [5]: no stimulation of proinflammatory cytokines
release of IL-1β by cultured vaginal cells ([5]; human, 6 h): did not induce the release of IL-1β
effect on growth of Lactobacillus gasseri (Lactobacillus gasseri; 5 mg/mL): no inhibitory effect
growth of Lactobacillus gasseri, % of control (Lactobacillus gasseri; 5 mg/mL (highest concentration tested)): 107 % of control
Potency, Lactobacilli (Doubling time) (Lactobacillus gasseri; max. concentration tested = 5 mg/mL): None
